Results from US20240327354A1, “GRAM-NEGATIVE BACTERIA EFFLUX PUMP INHIBITORS” (INSTITUT NATIONAL DE LA SANTÉ ET DE LA RECHERCHE MÉDICALE, priority 2021, published 2024).
Where a name gives a salt, the structure may show the parent alone.

Key:
E. coli BW25113 = assay: Assay 1: growth inhibition of E. coli by sub-inhibitory pyridomycin in combination with examples (resazurin reduction); type: cell-based, Escherichia coli; conditions: read-out: EC50 on E. coli with 8 μg/mL of pyridomycin, 8 μg/mL pyridomycin, 5 h, 37° C.
Outline: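 E. coli BW25113 at OD600 0.0004–0.001 was grown in CAMHB at 37 °C. Viability was read by resazurin reduction fluorescence (Ex 530/Em 590 nm). EC50 is the concentration preventing 50% of resazurin turnover relative to untreated bacteria.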

[1] = test system: A. baumannii LMG 1025 (ATCC 17978); assay: Assay 3: growth inhibition of A. baumannii by sub-inhibitory novobiocin in combination with examples (resazurin reduction); type: cell-based, Acinetobacter baumannii
Source text: (§1) Escherichia coli BW25113 (CGSC 7636) and its derivatives E. coli ΔtolC (JW5503-1, ΔtolC732::kan, CGSC 11430), E. coli ΔacrA (JW0452-3, ΔacrA748::kan, CGSC 11843) and E. coli ΔacrB (JW0451-2, ΔacrB747::kan, CGSC 8609) were obtained from E. coli Genetic Stock Center (CGSC, New Haven, Connecticut) and originated from the Keio Collection (Baba T et al, Mol Sys Biol, 2006). Klebsiella pneumoniae (LMG 2095/ATCC 13883) and K. pneumoniae (ATCC43816), Pseudomonas aeruginosa (PAO1), Acinetobacter baumannii (LMG 1025, ATCC 17978), were obtained from ATCC or BCCM/LMG Bacteria Collection. All bacteria were grown and tested in cation-adjusted Mueller-Hinton broth (CAMHB; BD Difco) at 37° C. For conservation, log phase bacteria were frozen (−80° C.) in CAMHB supplemented with 15% glycerol.
Measurement of growth Inhibition of A. baumannii strains by sub Inhibitory concentrations of novobiocin In combination with examples 1-137
(§2) For the evaluation of the dose dependent activity of examples 1-137, their ability to boost the antibacterial activity of sub-inhibitory concentrations novobiocin was determined. Briefly, A. baumannii LMG 1025 (ATCC 17978) were diluted from frozen or growing stocks to an OD600 of 0.001 in CAMHB. The bacterial suspension was then used as such (no—antibiotic control to evaluate EPI activity), or spiked with novobiocin at a final concentration of 5 μg/mL. Bacteria were then added to microplates carrying serial dilutions of the compounds examples 1-137, and incubated for (5 h or 24 h, 37° C.). Bacterial viability was evaluated using the resazurin reduction assay, and measured by fluorescence (POLARstar Omega, BMG Labtech: Ex: 530 nm Em: 590 nm). […] were defined as the compound concentration that prevented 90% of resazurin turnover compared to the non-treated bacteria.

[2] = test system: A. baumannii LMG 1025 (ATCC 17978); assay: Assay 2: growth inhibition of A. baumannii by sub-inhibitory chloramphenicol in combination with examples (resazurin reduction); type: cell-based, Acinetobacter baumannii; conditions: read-out: EC90 on A. baumannii with 10 μg/mL of chloramphenicol, 10 μg/mL chloramphenicol, 5 h or 24 h, 37° C.
Source text: as §1
Measurement of Growth Inhibition of A. baumannii Strains by Sub Inhibitory Concentrations of Chloramphenicol in Combination with Examples 1-137
as §2, with “concentrations chloramphenicol” for “concentrations novobiocin”, “such (no-antibiotic” for “such (no—antibiotic”, “with chloramphenicol” for “with novobiocin”, “of 10” for “of 5”

[3] = 5 μg/mL novobiocin, 5 h or 24 h, 37° C., read-out: EC90 on A. baumannii with 5 μg/mL of novobiocin

SMILES	EC50 (E. coli BW25113) [µM]	EC90 [1, 3] [µM]	EC90 ([1]; read-out: EC90 on A. baumannii with 5 μg/mL of novobiocin, 5 μg/mL novobiocin, 5 h or 24 h, 37° C.) [µM]	EC90 [2] [µM]
Cc1cc(CN)cc(-c2ccc3nc(N4CCNCC4)c(Cl)cc3c2)c1 [Example 123, [3-(3-chloro-2-piperazin-1-yl-6-quinolyl)-5-methyl-phenyl]methanamine;dihydrochloride]	< 5	5 to 100	–	–
COc1c(CN)cccc1-c1ccc2nc(N3CCNCC3)c(Cl)cc2c1 [Example 118, [3-(3-chloro-2-piperazin-1-yl-6-quinolyl)-2-methoxy-phenyl]methanamine;dihydrochloride]	< 5	5 to 100	–	–
C[C@H](N)c1cccc(-c2ccc3nc(N4CCNCC4)c(Cl)cc3c2)c1 [Example 112, (1S)-1-[3-(3-chloro-2-piperazin-1-yl-6-quinolyl)phenyl]ethanamine; dihydrochloride]	< 5	5 to 100	–	–
Cc1c(CN)cccc1-c1ccc2nc(N3CCNCC3)c(Cl)cc2c1 [Example 117, [3-(3-chloro-2-piperazin-1-yl-6-quinolyl)-2-methyl-phenyl]methanamine;dihydrochloride]	< 5	5 to 100	–	–
NCc1ccccc1-c1ccc2nc(N3CCNCC3)c(Cl)cc2c1 [Example 111, [2-(3-chloro-2-piperazin-1-yl-6-quinolyl)phenyl]methanamine;dihydrochloride]	< 5	5 to 100	–	–
NCCCCNc1ccc2nc(N3CCNCC3)c(Cl)cc2c1 [Example 105, N′-(3-chloro-2-piperazin-1-yl-6-quinolyl)butane-1,4-diamine;dihydrochloride]	< 5	5 to 100	–	–
COc1ccc(-c2ccc3nc(N4CCNCC4)c(Cl)cc3c2)cc1CN [Example 127, [5-(3-chloro-2-piperazin-1-yl-6-quinolyl)-2-methoxy-phenyl]methanamine;dihydrochloride]	< 5	5 to 100	–	–
COc1cc(CN)cc(-c2ccc3nc(N4CCNCC4)c(Cl)cc3c2)c1 [Example 124, [3-(3-chloro-2-piperazin-1-yl-6-quinolyl)-5-methoxy-phenyl]methanamine;dihydrochloride]	< 5	5 to 100	–	–
NCc1cc(-c2ccc3nc(N4CCNCC4)c(Cl)cc3c2)cc(C(F)(F)F)c1 [Example 125, [3-(3-chloro-2-piperazin-1-yl-6-quinolyl)-5-(trifluoromethyl)phenyl]methanamine;dihydrochloride]	< 5	–	5 to 100	–
Cc1ccc(CN)cc1-c1ccc2nc(N3CCNCC3)c(Cl)cc2c1 [Example 119, [3-(3-chloro-2-piperazin-1-yl-6-quinolyl)-4-methyl-phenyl]methanamine;dihydrochloride]	< 5	5 to 100	–	–
Cc1ccc(-c2ccc3nc(N4CCNCC4)c(Cl)cc3c2)cc1CN [Example 126, [5-(3-chloro-2-piperazin-1-yl-6-quinolyl)-2-methyl-phenyl]methanamine;dihydrochloride]	< 5	5 to 100	–	–
NCc1ccc(-c2ccc3nc(N4CCNCC4)c(Cl)cc3c2)cc1 [Example 107, [4-(3-chloro-2-piperazin-1-yl-6-quinolyl)phenyl]methanamine;dihydrochloride]	< 5	5 to 100	–	–
Clc1cc2cc(-c3cccc4c3CCNC4)ccc2nc1N1CCNCC1 [Example 133, 3-chloro-2-piperazin-1-yl-6-(1,2,3,4-tetrahydroisoquinolin-5-yl)quinoline;dihydrochloride]	< 5	5 to 100	–	–
NCc1ccc(Cl)c(-c2ccc3nc(N4CCNCC4)c(Cl)cc3c2)c1 [Example 121, [4-chloro-3-(3-chloro-2-piperazin-1-yl-6-quinolyl)phenyl]methanamine;dihydrochloride]	< 5	5 to 100	–	–
COc1ccc(CN)cc1-c1ccc2nc(N3CCNCC3)c(Cl)cc2c1 [Example 120, [3-(3-chloro-2-piperazin-1-yl-6-quinolyl)-4-methoxy-phenyl]methanamine;dihydrochloride]	< 5	5 to 100	–	–
NCc1cc(-c2ccc3nc(N4CCNCC4)c(Cl)cc3c2)ccc1Cl [Example 128, [2-chloro-5-(3-chloro-2-piperazin-1-yl-6-quinolyl)phenyl]methanamine;dihydrochloride]	< 5	5 to 100	–	–
NCc1cc(-c2ccc3nc(N4CCNCC4)c(Cl)cc3c2)ccc1C(F)(F)F [Example 129, [5-(3-chloro-2-piperazin-1-yl-6-quinolyl)-2-(trifluoromethyl)phenyl]methanamine;dihydrochloride]	< 5	5 to 100	–	–
COc1ccc(COC(=O)c2cnc(N3CCNCC3)c(Cl)c2)cc1 [Example 31, (4-methoxyphenyl)methyl 5-chloro-6-piperazin-1-yl-pyridine-3-carboxylate;hydrochloride]	5 to 100	–	–	100 to 500
Brc1cnc(N2CCCNCC2)c2ccccc12 [Example 8, 4-bromo-1-(1,4-diazepan-1-yl)isoquinoline]	5 to 100	–	–	5 to 100
O=C(OCCCc1ccc(Cl)cc1)c1cnc(N2CCNCC2)c(Cl)c1 [Example 27, 3-(4-chlorophenyl)propyl 5-chloro-6-piperazin-1-yl-pyridine-3-carboxylate;hydrochloride]	100 to 500	–	–	100 to 500
Clc1cc2cc(-c3ccc4c(c3)CNC4)ccc2nc1N1CCNCC1 [Example 135, 3-chloro-6-isoindolin-5-yl-2-piperazin-1-yl-quinoline;dihydrochloride]	< 5	5 to 100	–	–
Clc1cc2ccccc2nc1N1CCNCC1 [Example 37, 3-chloro-2-piperazin-1-yl-quinoline; hydrochloride]	< 5	–	–	5 to 100
CCN1CCN(c2nc3ccccc3nc2Cl)CC1 [Example 9, 2-chloro-3-(4-ethylpiperazin-1-yl)quinoxaline;hydrochloride]	5 to 100	–	–	100 to 500
NCCc1ccccc1C#Cc1cnc(N2CCNCC2)c(Cl)c1 [Example 90, 2-[2-[2-(5-chloro-6-piperazin-1-yl-3-pyridyl)ethynyl]phenyl]ethanamine; 2,2,2-trifluoroacetic acid]	< 5	5 to 100	–	–
O=C(OCc1ccccc1)c1cnc(N2CCNCC2)c(Cl)c1 [Example 22, benzyl 5-chloro-6-piperazin-1-yl-pyridine-3-carboxylate;hydrochloride]	5 to 100	–	–	100 to 500
Cc1c(Cl)ccc2cc(Cl)c(N3CCNCC3)nc12 [Example 98, 3,7-dichloro-8-methyl-2-piperazin-1-yl-quinoline;hydrochloride]	< 5	–	–	5 to 100
Clc1nc2ccccc2nc1N1CC2CCC(C1)N2 [Example 48, 2-chloro-3-(3,8-diazabicyclo[3.2.1]octan-3-yl)quinoxaline;hydrochloride]	5 to 100	–	–	100 to 500
Clc1ccc2nc(Cl)c(N3CCNCC3)cc2c1 [Example 41, 2,6-dichloro-3-piperazin-1-yl-quinoline;hydrochloride]	5 to 100	–	–	100 to 500
FC(F)(F)c1cnc(N2CC3CC2CN3)c(Cl)c1 [Example 15, (1S,4S)-2-[3-chloro-5-(trifluoromethyl)-2-pyridyl]-2,5-diazabicyclo[2.2.1]heptane;formic acid]	100 to 500	–	–	100 to 500
